Assay results: ChEMBL document CHEMBL1155889, “Structure-activity relationship studies on vitamin D lactam derivatives as vitamin D receptor antagonist” (Bioorg Med Chem Lett, 2008)
Active and inactive are the calls of the source. The rule behind the calls is not given here.

Legend:
[1] = target: T1, Vitamin D3 receptor (Gallus gallus) (UniProt O42392); test: Displacement of [3H]1,25-(OH)2-D3 from chick intestinal VDR relative to 1,25-(OH)2-D3
T1 sequence (whole entry): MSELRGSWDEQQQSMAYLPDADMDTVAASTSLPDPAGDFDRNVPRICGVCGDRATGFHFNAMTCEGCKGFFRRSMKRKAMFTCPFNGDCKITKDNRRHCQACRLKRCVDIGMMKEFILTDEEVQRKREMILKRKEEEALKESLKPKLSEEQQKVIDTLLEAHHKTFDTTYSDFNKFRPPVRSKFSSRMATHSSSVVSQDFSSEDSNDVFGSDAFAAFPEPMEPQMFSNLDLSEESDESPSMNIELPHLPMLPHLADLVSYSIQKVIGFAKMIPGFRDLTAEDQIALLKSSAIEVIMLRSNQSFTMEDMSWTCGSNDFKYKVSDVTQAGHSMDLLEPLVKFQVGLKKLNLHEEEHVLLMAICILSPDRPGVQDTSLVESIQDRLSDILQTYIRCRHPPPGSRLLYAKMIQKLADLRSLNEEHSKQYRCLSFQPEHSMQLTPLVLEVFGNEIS

[2] = target: T2, Vitamin D3 receptor (Homo sapiens) (UniProt P11473); test: Antagonist activity at VDR in human HL60 cells assessed as effect on 1,25-(OH)2-D3-induced cell differentiation at 3 uM by NBT assay; format: functional, cell-based; conditions: HL-60
T2 sequence (whole entry): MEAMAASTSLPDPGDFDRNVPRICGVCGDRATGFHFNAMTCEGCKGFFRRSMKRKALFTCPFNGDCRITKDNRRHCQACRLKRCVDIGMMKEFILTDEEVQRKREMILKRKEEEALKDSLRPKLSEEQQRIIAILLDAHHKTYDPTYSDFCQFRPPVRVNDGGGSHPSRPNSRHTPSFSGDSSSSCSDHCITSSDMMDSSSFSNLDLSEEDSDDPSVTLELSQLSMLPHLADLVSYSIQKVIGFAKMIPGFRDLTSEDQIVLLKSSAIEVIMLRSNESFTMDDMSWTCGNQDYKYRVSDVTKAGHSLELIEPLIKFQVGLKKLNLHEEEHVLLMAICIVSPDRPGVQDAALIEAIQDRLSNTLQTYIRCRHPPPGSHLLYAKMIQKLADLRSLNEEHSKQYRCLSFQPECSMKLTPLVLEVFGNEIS

[3] = target: T2, Vitamin D3 receptor (Homo sapiens); test: Antagonist activity at VDR in human HL60 cells assessed as effect on 1,25-(OH)2-D3-induced cell differentiation at 1 uM by NBT assay; format: functional, cell-based; conditions: HL-60
[4] = target: T2, Vitamin D3 receptor (Homo sapiens); test: Agonist activity at human VDR expressed in monkey COS7 cells at <10 uM by luciferase reporter gene assay; format: functional, cell-based; conditions: COS-7

SMILES | relative binding affinity (RBA) [1] | Activity [2] | Activity [3] | Activity [4]
C=C1/C(=C\C=C2/CCC[C@]3(C)[C@@H]([C@H](C)C[C@@H]4C[C@@](C)(O)C(=O)N4CCCc4cc(OC)cc(OC)c4)CC[C@@H]23)C[C@@H](O)C[C@@H]1O | < 1520 | inactive | – | –
C=C1/C(=C\C=C2/CCC[C@]3(C)[C@@H]([C@H](C)C[C@H]4C[C@](C)(O)C(=O)N4Cc4cc(OC)cc(OC)c4)CC[C@@H]23)C[C@@H](O)C[C@@H]1O | 1.9 | – | – | –
C=C1/C(=C\C=C2/CCC[C@]3(C)[C@@H]([C@H](C)C[C@H]4C[C@](C)(O)C(=O)N4Cc4cc(C(F)(F)F)cc(C(F)(F)F)c4)CC[C@@H]23)C[C@@H](O)C[C@@H]1O | 138 | inactive | – | –
C=C1/C(=C\C=C2/CCC[C@]3(C)[C@@H]([C@H](C)C[C@@H]4C[C@](C)(O)C(=O)N4Cc4cc(C(F)(F)F)cc(C(F)(F)F)c4)CC[C@@H]23)C[C@@H](O)C[C@@H]1O | < 1520 | inactive | – | –
C=C1/C(=C\C=C2/CCC[C@]3(C)[C@@H]([C@H](C)C[C@H]4C[C@](C)(O)C(=O)N4CCc4cc(OC)cc(OC)c4)CC[C@@H]23)C[C@@H](O)C[C@@H]1O | 12 | – | – | –
C=C1/C(=C\C=C2/CCC[C@]3(C)[C@@H]([C@H](C)C[C@H]4C[C@](C)(O)C(=O)N4CCc4cc(C(F)(F)F)cc(C(F)(F)F)c4)CC[C@@H]23)C[C@@H](O)C[C@@H]1O | 42 | inactive | – | –
C=C1/C(=C\C=C2/CCC[C@]3(C)[C@@H]([C@H](C)C[C@H]4C[C@](C)(O)C(=O)N4Cc4cc(OCCC)cc(OCCC)c4)CC[C@@H]23)C[C@@H](O)C[C@@H]1O | 11.9 | – | – | –
C=C1/C(=C\C=C2/CCC[C@]3(C)[C@@H]([C@H](C)C[C@@H]4C[C@](C)(O)C(=O)N4CCCc4cc(OC)cc(OC)c4)CC[C@@H]23)C[C@@H](O)C[C@@H]1O | < 1520 | inactive | – | –
C=C1/C(=C\C=C2/CCC[C@]3(C)[C@@H]([C@H](C)C[C@H]4C[C@@](C)(O)C(=O)N4Cc4cc(OC)cc(OC)c4)CC[C@@H]23)C[C@@H](O)C[C@@H]1O | 131 | – | – | –
C=C1/C(=C\C=C2/CCC[C@]3(C)[C@@H]([C@H](C)C[C@@H]4C[C@](C)(O)C(=O)N4CCCc4cc(C(F)(F)F)cc(C(F)(F)F)c4)CC[C@@H]23)C[C@@H](O)C[C@@H]1O | < 5400 | – | inactive | –
C=C1/C(=C\C=C2/CCC[C@]3(C)[C@@H]([C@H](C)C[C@H]4C[C@](C)(O)C(=O)N4CCCc4cc(C(F)(F)F)cc(C(F)(F)F)c4)CC[C@@H]23)C[C@@H](O)C[C@@H]1O | 181 | – | inactive | –
C=C1/C(=C\C=C2/CCC[C@]3(C)[C@@H]([C@H](C)C[C@H]4C[C@](C)(O)C(=O)N4CCc4ccccc4)CC[C@@H]23)C[C@@H](O)C[C@@H]1O | 12.5 | – | – | –
C=C1/C(=C\C=C2/CCC[C@]3(C)[C@@H]([C@H](C)C[C@@H]4C[C@](C)(O)C(=O)N4CCc4cc(OC)cc(OC)c4)CC[C@@H]23)C[C@@H](O)C[C@@H]1O | < 1520 | – | inactive | –
C=C1/C(=C\C=C2/CCC[C@]3(C)[C@@H]([C@H](C)C[C@@H]4C[C@@](C)(O)C(=O)N4CCCc4cc(C(F)(F)F)cc(C(F)(F)F)c4)CC[C@@H]23)C[C@@H](O)C[C@@H]1O | < 5400 | – | inactive | –
C=C1/C(=C\C=C2/CCC[C@]3(C)[C@@H]([C@H](C)C[C@H]4C[C@](C)(O)C(=O)N4Cc4cc(OCCCC)cc(OCCCC)c4)CC[C@@H]23)C[C@@H](O)C[C@@H]1O | 18.2 | – | – | –
C=C1/C(=C\C=C2/CCC[C@]3(C)[C@@H]([C@H](C)C[C@H]4C[C@](C)(O)C(=O)N4Cc4cc(OCC)cc(OCC)c4)CC[C@@H]23)C[C@@H](O)C[C@@H]1O | 3.5 | – | – | –
C=C1/C(=C\C=C2/CCC[C@]3(C)[C@@H]([C@H](C)C[C@H]4C[C@](C)(O)C(=O)N4CCCc4cc(OC)cc(OC)c4)CC[C@@H]23)C[C@@H](O)C[C@@H]1O | 57 | – | – | –
C=C1/C(=C\C=C2/CCC[C@]3(C)[C@@H]([C@H](C)C[C@@H]4C[C@@](C)(O)C(=O)N4Cc4cc(C(F)(F)F)cc(C(F)(F)F)c4)CC[C@@H]23)C[C@@H](O)C[C@@H]1O | < 1520 | inactive | – | –
C=C1/C(=C\C=C2/CCC[C@]3(C)[C@@H]([C@H](C)C[C@@H]4C[C@@](C)(O)C(=O)N4CCc4cc(OC)cc(OC)c4)CC[C@@H]23)C[C@@H](O)C[C@@H]1O | 284 | – | inactive | –
C=C1/C(=C\C=C2/CCC[C@]3(C)[C@@H]([C@H](C)C[C@H]4C[C@@](C)(O)C(=O)N4CCc4cc(OC)cc(OC)c4)CC[C@@H]23)C[C@@H](O)C[C@@H]1O | < 1520 | – | inactive | –
C=C1/C(=C\C=C2/CCC[C@]3(C)[C@@H]([C@H](C)C[C@H]4C[C@@](C)(O)C(=O)N4CCCc4cc(OC)cc(OC)c4)CC[C@@H]23)C[C@@H](O)C[C@@H]1O | < 1520 | inactive | – | –
C=C1/C(=C\C=C2/CCC[C@]3(C)[C@@H]([C@H](C)C[C@H]4C[C@@](C)(O)C(=O)N4CCc4cc(C(F)(F)F)cc(C(F)(F)F)c4)CC[C@@H]23)C[C@@H](O)C[C@@H]1O | 1180 | inactive | – | –
C=C1/C(=C\C=C2/CCC[C@]3(C)[C@@H]([C@H](C)C[C@@H]4C[C@@](C)(O)C(=O)N4Cc4cc(OC)cc(OC)c4)CC[C@@H]23)C[C@@H](O)C[C@@H]1O | 185 | – | – | –
C=C1/C(=C\C=C2/CCC[C@]3(C)[C@@H]([C@H](C)C[C@H]4C[C@@](C)(O)C(=O)N4CCCc4cc(C(F)(F)F)cc(C(F)(F)F)c4)CC[C@@H]23)C[C@@H](O)C[C@@H]1O | < 5400 | – | inactive | –
C=C1/C(=C\C=C2/CCC[C@]3(C)[C@@H]([C@H](C)C[C@@H]4C[C@](C)(O)C(=O)N4Cc4cc(OC)cc(OC)c4)CC[C@@H]23)C[C@@H](O)C[C@@H]1O | 60 | – | – | –
C=C1/C(=C\C=C2/CCC[C@]3(C)[C@@H]([C@H](C)C[C@@H]4C[C@@](C)(O)C(=O)N4CCc4cc(C(F)(F)F)cc(C(F)(F)F)c4)CC[C@@H]23)C[C@@H](O)C[C@@H]1O | 236 | inactive | – | –
C=C1/C(=C\C=C2/CCC[C@]3(C)[C@@H]([C@H](C)C[C@H]4C[C@](C)(O)C(=O)N4Cc4ccccc4)CC[C@@H]23)C[C@@H](O)C[C@@H]1O | 36.4 | – | – | –
C=C1/C(=C\C=C2/CCC[C@]3(C)[C@@H]([C@H](C)C[C@H]4C[C@@](C)(O)C(=O)N4Cc4cc(C(F)(F)F)cc(C(F)(F)F)c4)CC[C@@H]23)C[C@@H](O)C[C@@H]1O | < 1520 | inactive | – | –
C=C1/C(=C\C=C2/CCC[C@]3(C)[C@@H]([C@H](C)C[C@H]4C[C@](C)(O)C(=O)N4Cc4cc(O)cc(O)c4)CC[C@@H]23)C[C@@H](O)C[C@@H]1O | 9.6 | – | inactive | inactive
C=C1/C(=C\C=C2/CCC[C@]3(C)[C@@H]([C@H](C)C[C@@H]4C[C@](C)(O)C(=O)N4CCc4cc(C(F)(F)F)cc(C(F)(F)F)c4)CC[C@@H]23)C[C@@H](O)C[C@@H]1O | 757 | inactive | – | –
